For orientation: IC50 means the concentration needed to halve the response being measured.

These results are taken from publication PMC6481345, “A novel anti-melanoma SRC-family kinase inhibitor” (Oncotarget, 2019).

Series [1] can be described thus: Clinical signs of toxicity in tumor bearing mice. It counts as in vivo. The note with it: daily intraperitoneal SAB298. As for the experimental part:
All procedures involving animals were approved by the Institutional Animal Care and Use Committee of Yale University. YUSIK melanoma cells were grown to 80% confluency in 150 cm^2 flasks, detached by trypsinization, washed with PBS, and cell pellets were resuspended in 1:1 mixture of PBS and matrigel (BD Bioscience Cat #354234) to sustain cell viability. The cells (4 × 10^6/100 µl) were injected subcutaneously in the back flank of six weeks old female athymic Nude-Foxn1nu (nu/nu) mice (Charles River Laboratories, Wilmington, MA), and tumors were measuring daily with a caliper (length, width, and depth). When tumors reached palpable size (between 25–40 mm^3), the animals were randomized by tumor size and body weigh into two groups and were daily injected intraperitoneally with SAB298 (batch #AU0588-91, Sabila Biosciences LLC, 5 Overlook Road, New City, New York, 10956) or vehicle as controls (N = 6/each). […] The vehicle contained the same reagents but without SAB298.
The tumors size and body weight were measured daily and the mice were checked for clinical signs of toxicity, such as lethargy, neurological symptoms, diarrhea, discharges, morbidity, piloerection and weight loss (>20%).

In a further series the test system is phospho-PP2A Y307. The experiment in a line: Western blot, inactivated PP2A. It counts as cell-based, human. The note with it: YUSIK and YUSIV melanoma cells. As for the experimental part: We used standard techniques to identify changes in intracellular signaling in response to various treatments. Briefly, melanoma cells were incubated with test compounds, using DMSO as a control, collected by scraping on ice, and lysed in RIPA buffer supplemented with protease and phosphatase inhibitors (MA #78428, and #78425, respectively, Thermo Fisher Scientific, Waltham, MA). Protein concentrations were measured with the BioRad kit (Bio-Rad Laboratories, Hercules, CA), SDS sample buffer was added, extracts were heated at 95°C, sonicated and centrifuged. Cell extracts (20 µg/lane) were fractionated in 3%–8% or 4–12 % tris-acetate gel (NP0006, NuPAGE Life Technologies). […]
In general terms: Immunoblotting shows a protein as a band on a membrane.

Series [2] deals with T1, ERBB2 (Homo sapiens, UniProt P04626). Kind of series: Radioisotope filter activity assay, recombinant kinase. Also noted: purchased Reaction Biology Corporation. It counts as biochemical. Particulars: 10 point dose response, 10 µM ATP. As for the experimental part: (§1) The effect of SAB298 on a panel of 36 recombinant kinases, was screed with the radioisotope filter binding assay employing 10 concentrations of the compound with 10 µM ATP (Reaction Biology Corporation, Malvern, PA). In addition, we tested the endogenous kinome response to SAB298 (0.05 µM, 0.5 µM and 5 µM) in lysates from two melanoma cell lines (YUSIV and YUSIK) employing the KiNativ® platform (ActivX Biosciences Inc., La Jolla, CA). KiNativ® is a robust, high performance mass spectrometry (LC-MS^2) assay that uses biotinylated probes to measure relevant changes in the affinity to the ATP-binding sites of 205 native kinases as a function of cellular context. We also validated SAB298 effect on the activity of SRC-family kinases by probing for phosphorylated Y416, the marker of activated SFKs, with anti-IEDNEpYTAR antibodies (also known as Y419, #2101, Cell Signaling Technology, Beverly, MA). In some cases the cells were incubated overnight with 20 µM proteasome inhibitor MG-132 (CAS 133407-82-6, Millipore Sigma, Burlington, MA) to rescue degradation.
T1 sequence (P04626 23-1255): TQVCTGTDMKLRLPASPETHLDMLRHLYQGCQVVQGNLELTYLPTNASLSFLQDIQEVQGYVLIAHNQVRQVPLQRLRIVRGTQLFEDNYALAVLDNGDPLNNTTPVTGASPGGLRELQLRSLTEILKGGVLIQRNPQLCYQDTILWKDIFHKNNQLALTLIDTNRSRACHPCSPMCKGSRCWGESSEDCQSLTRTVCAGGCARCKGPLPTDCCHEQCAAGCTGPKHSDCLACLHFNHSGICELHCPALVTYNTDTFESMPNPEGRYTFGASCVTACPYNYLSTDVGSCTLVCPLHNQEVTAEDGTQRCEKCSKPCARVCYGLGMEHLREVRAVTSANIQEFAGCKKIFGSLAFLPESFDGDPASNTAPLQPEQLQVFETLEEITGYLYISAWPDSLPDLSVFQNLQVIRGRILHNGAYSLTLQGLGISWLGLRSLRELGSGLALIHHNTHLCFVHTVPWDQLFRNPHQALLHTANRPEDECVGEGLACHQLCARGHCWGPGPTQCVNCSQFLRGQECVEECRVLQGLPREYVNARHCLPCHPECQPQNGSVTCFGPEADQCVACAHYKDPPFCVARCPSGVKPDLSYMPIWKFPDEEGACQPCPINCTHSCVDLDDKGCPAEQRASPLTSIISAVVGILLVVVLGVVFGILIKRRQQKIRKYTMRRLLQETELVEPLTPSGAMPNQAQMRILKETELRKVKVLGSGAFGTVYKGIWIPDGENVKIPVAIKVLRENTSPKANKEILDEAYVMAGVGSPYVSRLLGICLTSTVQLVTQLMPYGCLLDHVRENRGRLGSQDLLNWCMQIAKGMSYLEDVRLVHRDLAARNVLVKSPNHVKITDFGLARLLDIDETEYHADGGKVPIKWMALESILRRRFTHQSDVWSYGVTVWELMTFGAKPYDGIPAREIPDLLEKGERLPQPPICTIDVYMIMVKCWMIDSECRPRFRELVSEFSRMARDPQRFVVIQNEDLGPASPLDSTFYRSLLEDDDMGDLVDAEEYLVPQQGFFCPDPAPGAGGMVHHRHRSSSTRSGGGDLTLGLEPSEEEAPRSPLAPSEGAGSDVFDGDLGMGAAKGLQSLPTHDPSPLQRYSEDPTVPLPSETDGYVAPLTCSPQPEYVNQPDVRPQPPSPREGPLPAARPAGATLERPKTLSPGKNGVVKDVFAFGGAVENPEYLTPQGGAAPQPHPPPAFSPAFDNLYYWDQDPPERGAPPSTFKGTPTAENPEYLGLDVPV
Supplemntary Table 3: Radioisotope filter activity assay Tests for SAB298 target protein
*These are results from 10 point dose response test employed with 10 µM ATP. […]
SRC TRCN0000195339 3ʹUTR […]
YES TRCN0000001611 CDS […]
FYN TRCN0000003099 CDS […]
LY N TRCN0000230901 CDS […]

A further series has as its target LCK (Homo sapiens, UniProt P06239). The experiment in a line: KiNativ in situ kinase profiling in melanoma cell lysates. The note with it: LCK in YUSIV lysate; 3-point dose response. It counts as binding. Also noted: we tested the endogenous kinome response to SAB298; host or cells: YUSIV or YUSIK melanoma cell lysate. As for the experimental part: as §1
In another series the target is ABL2 (Homo sapiens, UniProt P42684). The series is described as above. It counts as binding. More on the design: we tested the endogenous kinome response to SAB298; host or cells: YUSIV and YUSIK melanoma cell lysates. Particulars: 3-point dose response. As for the experimental part:
as §1

Another series deals with CSK (Homo sapiens, UniProt P41240). Described as above. It counts as binding. More on the design: we tested the endogenous kinome response to SAB298; host or cells: YUSIV and YUSIK melanoma cell lysates. Particulars: 3-point dose response. As for the experimental part: as §1
CSK, sequence (P41240 whole entry): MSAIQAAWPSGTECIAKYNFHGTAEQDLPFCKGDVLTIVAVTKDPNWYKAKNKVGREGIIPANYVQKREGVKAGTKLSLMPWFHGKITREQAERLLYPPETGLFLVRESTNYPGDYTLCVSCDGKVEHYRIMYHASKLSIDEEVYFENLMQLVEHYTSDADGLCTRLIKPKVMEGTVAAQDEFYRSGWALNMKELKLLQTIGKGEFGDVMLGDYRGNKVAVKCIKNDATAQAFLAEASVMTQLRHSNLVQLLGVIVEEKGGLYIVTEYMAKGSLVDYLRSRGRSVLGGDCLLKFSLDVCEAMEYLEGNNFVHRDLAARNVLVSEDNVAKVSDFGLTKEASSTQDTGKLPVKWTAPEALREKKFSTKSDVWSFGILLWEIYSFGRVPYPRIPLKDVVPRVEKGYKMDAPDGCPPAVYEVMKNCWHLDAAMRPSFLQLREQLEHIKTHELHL
The target in series [3] is T1, ERBB2. Described as above. Also noted: we tested the endogenous kinome response to SAB298; host or cells: YUSIV and YUSIK melanoma cell lysates. It counts as binding. The note with it: for IC50: 3-point dose response. The protocol:
as §1

ABL2, sequence (P42684 whole entry): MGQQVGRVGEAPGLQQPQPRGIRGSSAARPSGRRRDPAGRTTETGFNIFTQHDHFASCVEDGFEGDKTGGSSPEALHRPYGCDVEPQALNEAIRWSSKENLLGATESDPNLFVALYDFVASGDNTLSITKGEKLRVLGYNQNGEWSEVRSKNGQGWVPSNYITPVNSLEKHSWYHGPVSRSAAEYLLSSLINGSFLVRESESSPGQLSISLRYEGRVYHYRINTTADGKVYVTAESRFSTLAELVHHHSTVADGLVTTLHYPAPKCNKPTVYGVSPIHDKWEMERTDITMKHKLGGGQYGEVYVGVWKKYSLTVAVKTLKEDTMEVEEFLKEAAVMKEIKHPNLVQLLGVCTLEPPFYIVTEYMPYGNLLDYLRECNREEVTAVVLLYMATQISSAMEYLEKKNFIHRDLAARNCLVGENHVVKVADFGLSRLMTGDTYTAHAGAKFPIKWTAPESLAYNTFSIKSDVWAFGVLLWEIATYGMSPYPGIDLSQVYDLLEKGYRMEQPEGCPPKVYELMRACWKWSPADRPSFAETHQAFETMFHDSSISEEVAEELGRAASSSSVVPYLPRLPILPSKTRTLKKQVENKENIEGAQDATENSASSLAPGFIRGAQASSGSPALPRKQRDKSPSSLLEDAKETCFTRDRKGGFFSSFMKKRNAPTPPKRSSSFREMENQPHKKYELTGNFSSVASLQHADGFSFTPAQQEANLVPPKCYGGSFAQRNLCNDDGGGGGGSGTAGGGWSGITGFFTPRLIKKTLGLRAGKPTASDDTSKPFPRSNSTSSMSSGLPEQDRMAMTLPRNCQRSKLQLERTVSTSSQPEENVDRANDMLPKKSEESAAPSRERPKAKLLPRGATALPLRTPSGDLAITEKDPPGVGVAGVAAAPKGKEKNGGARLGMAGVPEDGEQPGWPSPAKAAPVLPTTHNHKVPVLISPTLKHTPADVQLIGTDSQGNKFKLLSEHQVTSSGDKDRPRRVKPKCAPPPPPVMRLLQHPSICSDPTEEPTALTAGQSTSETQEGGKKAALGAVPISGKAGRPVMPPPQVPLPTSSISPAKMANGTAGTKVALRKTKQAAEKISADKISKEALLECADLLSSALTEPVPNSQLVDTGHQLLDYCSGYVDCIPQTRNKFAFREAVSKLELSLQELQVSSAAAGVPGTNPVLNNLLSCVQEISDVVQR
LCK, sequence (P06239 whole entry): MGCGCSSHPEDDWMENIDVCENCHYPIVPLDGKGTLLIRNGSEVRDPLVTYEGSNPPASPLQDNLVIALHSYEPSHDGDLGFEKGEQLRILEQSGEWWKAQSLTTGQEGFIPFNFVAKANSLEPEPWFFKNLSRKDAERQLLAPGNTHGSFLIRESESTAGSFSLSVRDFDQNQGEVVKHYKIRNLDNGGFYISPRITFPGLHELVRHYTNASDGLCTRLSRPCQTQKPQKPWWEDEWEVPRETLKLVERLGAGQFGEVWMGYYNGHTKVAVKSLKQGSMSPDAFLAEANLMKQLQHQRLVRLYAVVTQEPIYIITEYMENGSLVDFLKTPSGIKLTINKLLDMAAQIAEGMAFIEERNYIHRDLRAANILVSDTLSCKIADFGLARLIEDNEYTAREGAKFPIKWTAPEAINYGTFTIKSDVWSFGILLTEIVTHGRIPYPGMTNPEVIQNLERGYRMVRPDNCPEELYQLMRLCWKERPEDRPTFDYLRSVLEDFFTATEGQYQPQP

Regarding `Nc1ncnc2c1c(-c1ccc(Oc3ccccc3)cc1)nn2C[C@@H]1SSC[C@@H]1O` [SAB298, (3S, 4S)-3-((4-amino-3-(4-phenoxyphenyl)-1H-pyrazolo[3,4-d]pyrimidin-1-yl)methyl)-1,2-dithiolan-4-ol], in series [1], the “Clinical signs of toxicity (lethargy, neurological symptoms, diarrhea, discharges, morbidity, piloerection, weight loss >20%)” value is reported as “None of them or any other abnormal indication were observed”. The “inactivated PP2A (phospho-PP2A Y307) level” value in the series on phospho-PP2A Y307 is reported as “increase in the levels of inactivated PP2A”. Also, the concentration for half-maximal inhibition (IC50) on ERBB2 [2] was found to be 8860 nM; against LCK, 1400 nM; against ABL2 (ABL2 in YUSIK lysate), 240 nM; at ABL2 (ABL2 in YUSIV lysate) it was 87 nM; at CSK (CSK in YUSIK lysate) it was 910 nM; against CSK (CSK in YUSIV lysate), 420 nM. Moreover, the 50% inhibitory concentration (IC50) stood at 530 nM against ERBB2 [3] (ERBB2 in YUSIK lysate) and 410 nM against ERBB2 [3] (ERBB2 in YUSIV lysate). Further, the “higher binding affinity in KiNativ assay compared to radioisotope filtration binding assay” value at ERBB2 [3] (ERBB2) is on record as around 20 fold.
